# “Also recorded” adds a separate entry of the source. Where two headings read alike, the source gives them in different places.
# What was measured:
# [1] = Pharmacokinetics after intravenous injection in beagle dogs; type: in vivo; settings: for Cmax / MRT / clearance / half-life: male, dog, whole blood
# Method: Male beagle dogs (SPF, 10.2–10.8 kg, aged 2 years) were provided by the Xingang Experimental Animal Co., Ltd. (Shanghai, China). All dogs were fed with standard laboratory food and water ad libitum at least 3 days prior to the experiments in an environmentally controlled room (12 h dark-light cycle; ~25 °C, 60% humidity, GB14925-2001). All protocols and procedures were approved by the Institutional Animal Care and Use Committee of Shanghai Ocean University (Approval number: 13-0012). The blood and tissues of the dogs were removed while the dogs were ether anesthetized. Their plasma was collected from the fossa orbitalis vein. Every effort was made to minimize animal pain and suffering.
# 2,5-BHPA was dissolved in normal saline with NaHCO3 as a solvent (2,5-BHPA/NaHCO3, m/m, 1:1), which was agitated overnight on a magnetic stirrer. Subsequently, it was diluted to different concentrations, filtered, and stored in a refrigerator at 4 °C. The dose was adjusted according to the body weight of the beagle dogs in a volume of 200 µL, and 2,5-BHPA was administered by intravenous injection (7.5, 5.0, and 2.5 mg/kg). Subcutaneous injection in the forearm was used in the experiment.
# Nine dogs were randomly divided into three groups (n = 3) and fasted for 24 h with water ad libidum. 2,5-BHPA was administered by intravenous injection (7.5, 5.0, and 2.5 mg/kg). The volume of the three sample levels was identical. The blood samples of 200 µL were drawn at 0, 1, 5, 15, 30, 40, 60, 120, and 240 min after drug treatment, and the samples were immediately stored with 1.8 mL of methanol (methanol:blood = 9:1, v/v). The samples were mixed and centrifuged at 5000× g for 15 min at RT, and the supernatants were filtered for HPLC analysis.
# The data were processed with Microsoft Excel 2013 edited by Microsoft (Seattle, WA, USA) and SPSS V25.0 edited by SPSS (Chicago, IL, USA). PKsolver V2.0 edited by China Pharmaceutical University (Nanjing, China) was used to calculate the pharmacokinetic parameters and the compartment model. The image was processed with Origin 9.0 software edited by Origin Lab (Northampton, MA, USA).
# [2] = Short-term stability in beagle dog plasma; type: in vitro ADME; settings: 24 h, residual/initial
# Method: The stability of 2,5-BHPA was assayed at 1, 100, and 400 mg/L. The short-term stability of 2,5-BHPA stored at 37 °C was determined after 24 h. Stability was defined as the amount of 2,5-BHPA residual after 24 h divided by the initial amount.
# Caco-2 cells monolayer = Caco-2 cells monolayer absorption and bidirectional transport experiment; type: in vitro ADME, human
# Method: (§1) The samples included three control drugs (fenoterol, propranolol, and digoxin) and 2,5-BHPA. […] For transfer in the AP→BL direction, 0.075 mL drug solution was added to the AP side as the supply pool, and 0.25 mL HBSS solution was added to the BL side as the receiving pool. In the BL→AP direction, 0.25 mL compound solution was added to the BL side as the supply pool, and 0.075 mL HBSS solution was added to the AP side as the receiving pool. The transwell plate was then cultured in an incubator at 37 °C for 2 h. Samples on the AP side and BL side were collected, respectively. Then, acetonitrile containing an internal label was added to each upper chamber to lyse transport membranes. The total recovery was calculated by collecting the amount of lead compound absorbed on the membrane surface or accumulated in the cell. Finally, the concentration of each sample was calculated as the ratio of the peak area between the compound and the inner target through mass spectrum analysis (API 4000).
# (§2) Papp = (dCr/dt) × Vr/(A × C0)(2) where dCr/dt is the cumulative compound concentration per unit of time (µM/s); Vr is the volume in the receiving hole (mL); A is the transport membrane area; and C0 is the compound initiation concentration (µM).
# [3] = as above; type: in vitro ADME, human; settings: human
# Method: as §1, §2
# fibrinolytic enzyme = test system: fibrinolytic enzyme; parameters: method as in earlier work; settings: cited from earlier work
# [4] = beagle dogs, intravenous, 2.5 mg·kg^−1
# [5] = beagle dogs, intravenous, 5.0 mg·kg^−1
# [6] = beagle dogs, intravenous, 7.5 mg·kg^−1
# [7] = 5 µM, 0.1% bull serum albumin added
# [8] = 15 µM, 0.1% bull serum albumin added
# [9] = 25 µM, 0.1% bull serum albumin added
smiles,measurement,setting,value
"CC(C)=CCCC(C)=CCCC1(C)Oc2c(c(O)cc3c2CN(CCCC(C(=O)O)N2Cc4c(cc(O)c5c4OC(C)(CCC=C(C)CCC=C(C)C)C(O)C5)C2=O)C3=O)CC1O (centres unmarked) [2,5-BHPA, 2,5-Bis-[8-(4,8-dimethyl-nona-3,7-dienyl)-5,7-dihydroxy-8-methyl-3-keto-1,2,7,8-tertahydro-6H-pyran[a]isoindol-2-yl]-pentanoic acid]",K10,[1]; [4],0.055 ± 0.021 min⁻¹
same,K12,[1]; [4],0.009 ± 0.004 min⁻¹
same,K21,[1]; [4],0.018 ± 0.001 min⁻¹
same,K10,[1]; [5],0.075 ± 0.012 min⁻¹
same,K12,[1]; [5],0.017 ± 0.002 min⁻¹
same,K21,[1]; [5],0.018 ± 0.001 min⁻¹
same,K10,[1]; [6],0.051 ± 0.015 min⁻¹
same,K12,[1]; [6],0.007 ± 0.004 min⁻¹
same,K21,[1]; [6],0.017 ± 0.003 min⁻¹
same,compartment model of plasma concentration-time curves,"[1]; beagle dogs, intravenous, 7.5, 5.0, 2.5 mg·kg^−1, weight = 1/c^2",fitted well to a two-compartment model; also recorded: consistent with the two-compartment model
same,half-life (T1/2) in dogs compared with rats,[1]; dogs (this study) versus rats [14],about two times longer than in rats
same,dose linearity of pharmacokinetics,"[1]; dogs, intravenous, dose range 2.5-7.5 mg/kg, from CL and MRT",linear pharmacokinetic characteristics
same,Cmax,[1]; [4],13600 ± 2760 ng/mL
same,MRT,[1]; [4],28.7 min
same,clearance,[1]; [4],9.2 ± 0.6 mL/min/kg
same,half-life,[1]; [4],49 ± 2 min
same,Cmax,[1]; [5],48600 ± 5530 ng/mL
same,MRT,[1]; [5],26.2 min
same,clearance,[1]; [5],7.1 ± 0.8 mL/min/kg
same,half-life,[1]; [5],48 ± 2 min
same,Cmax,[1]; [6],56500 ± 6230 ng/mL
same,MRT,[1]; [6],28.2 min
same,clearance,[1]; [6],6.2 ± 0.4 mL/min/kg
same,half-life,[1]; [6],49 ± 2 min
same,Stability,"[2]; 1.0 μg·mL^−1, 37 °C",94.69 ± 5.37%
same,Stability,"[2]; 100 μg·mL^−1, 37 °C",98.39 ± 2.25%
same,Stability,"[2]; 400 μg·mL^−1, 37 °C",97.63 ± 5.91%
same,Recoveries AP to BL,"Caco-2 cells monolayer; 0.5 μM, no BSA",8.745 ± 0.155%
same,Recoveries BL to AP,"Caco-2 cells monolayer; 0.5 μM, no BSA",25.54 ± 1.55%
same,Total Recoveries AP to BL,"Caco-2 cells monolayer; 0.5 μM, no BSA",35.77 ± 1.29%
same,Total Recoveries BL to AP,"Caco-2 cells monolayer; 0.5 μM, no BSA",25.48 ± 1.13%
same,transport mechanism in the Caco-2 model,Caco-2 cells monolayer; 2 µM to 25 µM,may involve passive diffusion
same,Recoveries AP to BL,"Caco-2 cells monolayer; 2 μM, no BSA",13.419 ± 0.566%
same,Recoveries BL to AP,"Caco-2 cells monolayer; 2 μM, no BSA",47.16 ± 1.32%
same,Total Recoveries AP to BL,"Caco-2 cells monolayer; 2 μM, no BSA",39.67 ± 1.47%
same,Total Recoveries BL to AP,"Caco-2 cells monolayer; 2 μM, no BSA",47.69 ± 2.10%
same,Recoveries AP to BL,Caco-2 cells monolayer; [7],85.52 ± 2.34%
same,Recoveries BL to AP,Caco-2 cells monolayer; [7],96.32 ± 5.15%
same,Total Recoveries AP to BL,Caco-2 cells monolayer; [7],92.83 ± 3.44%
same,Total Recoveries BL to AP,Caco-2 cells monolayer; [7],96.41 ± 3.52%
same,Recoveries AP to BL,"Caco-2 cells monolayer; 5 μM, no BSA",26.76 ± 1.02%
same,Recoveries BL to AP,"Caco-2 cells monolayer; 5 μM, no BSA",52.42 ± 2.20%
same,Total Recoveries AP to BL,"Caco-2 cells monolayer; 5 μM, no BSA",52.34 ± 4.34%
same,Total Recoveries BL to AP,"Caco-2 cells monolayer; 5 μM, no BSA",53.02 ± 2.01%
same,Recoveries AP to BL,Caco-2 cells monolayer; [8],84.85 ± 3.36%
same,Recoveries BL to AP,Caco-2 cells monolayer; [8],96.18 ± 6.56%
same,Total Recoveries AP to BL,Caco-2 cells monolayer; [8],92.83 ± 4.26%
same,Total Recoveries BL to AP,Caco-2 cells monolayer; [8],96.97 ± 4.32%
same,Recoveries AP to BL,Caco-2 cells monolayer; [9],82.25 ± 2.28%
same,Recoveries BL to AP,Caco-2 cells monolayer; [9],89.52 ± 4.19%
same,Total Recoveries AP to BL,Caco-2 cells monolayer; [9],90.91 ± 4.63%
same,Total Recoveries BL to AP,Caco-2 cells monolayer; [9],89.63 ± 3.26%
same,permeability classification,Caco-2 cells monolayer; Papp ≤ 2.5 (×10^−6 cm·s^−1) indicated low permeability,low permeability
same,"efflux ratio at 2 h, 0.5 µM","[3]; Caco-2, 0.5 μM, no BSA",1.13
same,"Papp A→B at 2 h, 0.5 µM","[3]; Caco-2, 0.5 μM, no BSA, 2 h, read-out: Mean Papp AP to BL",0.493 ± 0.016 ×10⁻⁶ cm/s
same,"Papp B→A at 2 h, 0.5 µM","[3]; Caco-2, 0.5 μM, no BSA, 2 h, read-out: Mean Papp BL to AP",0.555 ± 0.09 ×10⁻⁶ cm/s
same,"efflux ratio at 2 h, 2 µM","[3]; Caco-2, 2 μM, no BSA",1.55
same,"Papp A→B at 2 h, 2 µM","[3]; Caco-2, 2 μM, no BSA, 2 h, read-out: Mean Papp AP to BL",0.048 ± 0.006 ×10⁻⁶ cm/s
same,"Papp B→A at 2 h, 2 µM","[3]; Caco-2, 2 μM, no BSA, 2 h, read-out: Mean Papp BL to AP",0.065 ± 0.005 ×10⁻⁶ cm/s
same,"efflux ratio at 2 h, 5 µM","[3]; Caco-2, 5 µM, 0.1% bull serum albumin added",1.56
same,"Papp A→B at 2 h, 5 µM","[3]; Caco-2, 5 µM, 0.1% bull serum albumin added, read-out: Mean Papp AP to BL",0.097 ± 0.005 ×10⁻⁶ cm/s
same,"Papp B→A at 2 h, 5 µM","[3]; Caco-2, 5 µM, 0.1% bull serum albumin added, read-out: Mean Papp BL to AP",0.153 ± 0.012 ×10⁻⁶ cm/s
same,"efflux ratio at 2 h, 5 µM","[3]; Caco-2, 5 μM, no BSA",1.06
same,"Papp A→B at 2 h, 5 µM","[3]; Caco-2, 5 μM, no BSA, 2 h, read-out: Mean Papp AP to BL",0.044 ± 0.003 ×10⁻⁶ cm/s
same,"Papp B→A at 2 h, 5 µM","[3]; Caco-2, 5 μM, no BSA, 2 h, read-out: Mean Papp BL to AP",0.043 ± 0.004 ×10⁻⁶ cm/s
same,"efflux ratio at 2 h, 15 µM","[3]; Caco-2, 15 µM, 0.1% bull serum albumin added",2.91
same,"Papp A→B at 2 h, 15 µM","[3]; Caco-2, 15 µM, 0.1% bull serum albumin added, read-out: Mean Papp AP to BL",0.045 ± 0.002 ×10⁻⁶ cm/s
same,"Papp B→A at 2 h, 15 µM","[3]; Caco-2, 15 µM, 0.1% bull serum albumin added, read-out: Mean Papp BL to AP",0.132 ± 0.035 ×10⁻⁶ cm/s
same,"efflux ratio at 2 h, 25 µM","[3]; Caco-2, 25 µM, 0.1% bull serum albumin added",1.49
same,"Papp A→B at 2 h, 25 µM","[3]; Caco-2, 25 µM, 0.1% bull serum albumin added, read-out: Mean Papp AP to BL",0.146 ± 0.009 ×10⁻⁶ cm/s
same,"Papp B→A at 2 h, 25 µM","[3]; Caco-2, 25 µM, 0.1% bull serum albumin added, read-out: Mean Papp BL to AP",0.216 ± 0.031 ×10⁻⁶ cm/s
same,Papp at 2 h,"[3]; Caco-2, text summary of Table 2, 0.1% BSA added, read-out: Papp, AP→BL or BL→AP direction",≤ 2.5 ×10⁻⁶ cm/s
same,recovery at 2 h,"[3]; Caco-2, text summary of Table 2, 0.1% BSA added, read-out: total recovery rate",> 90%
same,Papp at 2 h,"[3]; Caco-2, text summary, no BSA, over the concentrations tested, read-out: Papp range",0.04 to 0.49 ×10⁻⁶ cm/s
same,recovery at 2 h,"[3]; Caco-2, text summary, no BSA, over the concentrations tested, read-out: total recovery rate AP→BL",35.8 to 52.4%
same,recovery at 2 h,"[3]; Caco-2, text summary, no BSA, over the concentrations tested, read-out: total recovery rate BL→AP",25.9 to 53%
same,fibrinolytic activity,fibrinolytic enzyme,has been shown to have fibrinolytic activity

# — paper PMC6950567, “Evaluation of Marine Diindolinonepyrane in Vitro and in Vivo: Permeability Characterization in Caco-2 Cells Monolayer and Pharmacokinetic Properties in Beagle Dogs” (Marine Drugs, 2019)
